The subject of assay [1] is HT-29 human colon cancer cell line. As to the kind of experiment: Cytotoxicity assay. It is filed as cell-based. The conditions noted are these: HT-29 cells, two days' incubation, SRB; ED50 > 20 µM considered inactive.
The target of a further assay is NF-κB (p65) (Homo sapiens, UniProt Q04206). As to the kind of experiment: Enzyme-based ELISA NF-κB. The format is biochemical.
The subject of assay [2] is Leishmania mexicana promastigotes. As to the kind of experiment: Promastigote assay, live/dead parasites by flow cytometry. The format is cell-based. The conditions noted are these: 48 h, read-out: L. mexicana promastigotes IC50. In general terms: Flow cytometry measures light scatter and fluorescence of single cells or particles in a stream.

These results are taken from paper PMC4287998 (Phytochemistry letters, 2014).

pIC50: −log10 of the molar value.

Chain of NF-κB (p65) (Q04206 whole entry): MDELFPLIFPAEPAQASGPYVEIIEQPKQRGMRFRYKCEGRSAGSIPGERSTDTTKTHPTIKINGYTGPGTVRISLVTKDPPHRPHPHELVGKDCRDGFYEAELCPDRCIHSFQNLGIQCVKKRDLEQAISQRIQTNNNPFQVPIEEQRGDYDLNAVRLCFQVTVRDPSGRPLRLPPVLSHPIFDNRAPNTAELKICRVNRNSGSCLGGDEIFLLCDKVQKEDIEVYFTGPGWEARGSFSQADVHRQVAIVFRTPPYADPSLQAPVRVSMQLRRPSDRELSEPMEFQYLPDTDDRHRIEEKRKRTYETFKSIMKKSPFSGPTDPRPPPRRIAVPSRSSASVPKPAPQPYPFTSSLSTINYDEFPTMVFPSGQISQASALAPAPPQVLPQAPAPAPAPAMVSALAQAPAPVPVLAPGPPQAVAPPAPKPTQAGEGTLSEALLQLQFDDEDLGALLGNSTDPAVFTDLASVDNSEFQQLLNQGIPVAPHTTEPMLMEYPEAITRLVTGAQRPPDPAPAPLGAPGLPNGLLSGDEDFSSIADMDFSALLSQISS
Chain of NF-κB (p65) (P19838 1-433 partner limits assumed): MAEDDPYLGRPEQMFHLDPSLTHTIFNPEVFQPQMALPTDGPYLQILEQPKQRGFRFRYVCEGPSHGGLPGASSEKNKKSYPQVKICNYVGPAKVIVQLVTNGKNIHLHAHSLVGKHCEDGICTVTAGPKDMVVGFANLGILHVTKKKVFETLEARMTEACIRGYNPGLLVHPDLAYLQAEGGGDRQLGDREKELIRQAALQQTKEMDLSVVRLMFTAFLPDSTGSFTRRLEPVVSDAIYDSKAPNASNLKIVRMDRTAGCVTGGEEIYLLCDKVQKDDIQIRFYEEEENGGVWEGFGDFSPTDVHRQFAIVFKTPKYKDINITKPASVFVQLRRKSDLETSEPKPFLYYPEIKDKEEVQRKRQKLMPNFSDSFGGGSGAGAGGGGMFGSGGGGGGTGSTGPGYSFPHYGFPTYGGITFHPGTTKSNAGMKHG

Turning to `COc1ccc([C@@]23Oc4cc(OC)cc(OC)c4[C@]2(O)[C@H](O)[C@H](C(=O)N(C)C)[C@H]3c2ccccc2)cc1` [Rocaglamide, reference compound], the “HT-29 ED50” value in assay [1] is 0.005 µM.
On the same count and under the same terms, under “21-deoxy-N(4)-methyl-21-oxo-N(4),21-secotalpinine [Compound 2]” stands more than 20 µM.
On the same count and under the same terms, under villalstonine N(4)-oxide [Compound 8] stands more than 20 µM; under N(4)-methyltalpinine [Compound 1], more than 20 µM.
In general, pIC50 refers to the negative decadic logarithm of the IC50, by convention in mol/L. Turning to `C[C@@H]1OC[C@@H]2[C@@H](C[C@H]3c4c(c5ccccc5n4C)C[C@@H]2N3C)[C@H]1CO` [Compound 5, macrocarpine B], the pIC50 is less than 4.70 against NF-κB (p65) and less than 3.70 in assay [2].
For the molecule `C[C@@H]1[C@H](O)[C@@H](C)/C=C/C=C/C=C/C=C/C=C/C=C/C=C/[C@H](O[C@@H]2O[C@H](C)[C@@H](O)[C@H](N)[C@@H]2O)C[C@@H]2O[C@](O)(C[C@@H](O)C[C@@H](O)[C@H](O)CC[C@@H](O)C[C@@H](O)CC(=O)O[C@H]1C)C[C@H](O)[C@H]2C(=O)O` [Amphotericin B, reference compound], the negative logarithm of the IC50 (pIC50) in assay [2] is 7.05.
As to `CC(=O)C1=COC[C@@H]2[C@H]1C[C@H]1c3c(c4ccccc4n3C)C[C@@H]2N1C` [Compound 4, alstonerine], in assay [1], the “HT-29 ED50” value is given as more than 20 µM. In addition, the negative-log IC50 (pIC50) against NF-κB (p65) is less than 4.70; in assay [2] it was 3.84.
In the same order, the values of `CC1=C(C=O)[C@@H]2C[C@H]3c4c(c5ccccc5n4C)C[C@@H]([C@@H]2CO1)N3C` [Compound 3, alstonerinal] are 8.6 µM, less than 4.70 and 3.98.
As to villalstonidine D [Compound 9], the “HT-29 ED50” value in assay [1] was more than 20 µM.
With `C/C=C1\CN2CCC34CC5C6CC7c8c(c9ccccc9n8C)CC(C6COC5(C)OC35C2CC1C(C(=O)OC)N5c1ccccc14)N7C` (stereo not drawn) [Compound 7, villalstonine], the “HT-29 ED50” value in assay [1] is recorded as 8.0 µM.
On to `C/C=C1/C[N+]2(C)CC[C@@]34C[C@H]5[C@@H]6C[C@H]7c8c(c9ccccc9n8C)C[C@@H]([C@@H]6CO[C@@]5(C)O[C@@]35[C@@H]2C[C@@H]1[C@@H](C(=O)OC)N5c1ccccc14)N7C.[Cl-]` (stereo partly drawn) [Compound 10, villalstonidine E], for which the “HT-29 ED50” value in assay [1] stood at 6.5 µM.
On to `CC(=O)O[C@H]1C(=O)[C@@]2(C)[C@H]([C@H](OC(=O)c3ccccc3)[C@]3(O)C[C@H](OC(=O)[C@H](O)[C@@H](NC(=O)c4ccccc4)c4ccccc4)C(C)=C1C3(C)C)[C@]1(OC(C)=O)CO[C@@H]1C[C@@H]2O` [Paclitaxel, reference compound], for which the “HT-29 ED50” value in assay [1] was found to be 0.006 µM.
On the same count and under the same terms, for `C/C=C1/CN2[C@H]3C[C@@H]1[C@@H](CO)[C@@H]2Cc1c3n(C)c2ccccc12` [Compound 6, affinisine] the value was more than 20 µM.
